Experimental data taken from the supplement of paper PMC11451515.

Tested on: SEM cells
Assay: cell viability relative to DMSO control; higher = less cytotoxic
Conditions: 48 h
How it was run: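 Leukemia cells (NOMO1 or SEM, 500 cells/well; P12-Ichikawa, 1000 cells/well) were seeded in 5 μl in 1536-well plates after at least four passages of adaptation to each medium. They received library compounds in DMSO by pin dosing, 11 threefold points from 47 μM to 0.79 nM. Luminescence with CellTiter-Glo One was read after 48 h at 37°C. Viability is stated per plate relative to DMSO wells, with cell-free wells as background.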

[1] = HPLM + 10% dialyzed FBS, 0.000781 µM
[2] = HPLM + 10% dialyzed FBS, 0.00234 µM
[3] = HPLM + 10% dialyzed FBS, 0.00702 µM
[4] = HPLM + 10% dialyzed FBS, 0.0211 µM
[5] = HPLM + 10% dialyzed FBS, 0.0632 µM
[6] = HPLM + 10% dialyzed FBS, 0.19 µM
[7] = HPLM + 10% dialyzed FBS, 0.569 µM
[8] = HPLM + 10% dialyzed FBS, 1.71 µM
[9] = HPLM + 10% dialyzed FBS, 5.12 µM
[10] = HPLM + 10% dialyzed FBS, 15.4 µM
[11] = HPLM + 10% dialyzed FBS, 46.1 µM
[12] = RPMI 5 mM glucose + 10% FBS, 0.000781 µM
[13] = RPMI 5 mM glucose + 10% FBS, 0.00234 µM
[14] = RPMI 5 mM glucose + 10% FBS, 0.00702 µM
[15] = RPMI 5 mM glucose + 10% FBS, 0.0211 µM
[16] = RPMI 5 mM glucose + 10% FBS, 0.0632 µM
[17] = RPMI 5 mM glucose + 10% FBS, 0.19 µM
[18] = RPMI 5 mM glucose + 10% FBS, 0.569 µM
[19] = RPMI 5 mM glucose + 10% FBS, 1.71 µM
[20] = RPMI 5 mM glucose + 10% FBS, 5.12 µM
[21] = RPMI 5 mM glucose + 10% FBS, 15.4 µM
[22] = RPMI 5 mM glucose + 10% FBS, 46.1 µM
[23] = RPMI 5 mM glucose + 10% dialyzed FBS, 0.000781 µM
[24] = RPMI 5 mM glucose + 10% dialyzed FBS, 0.00234 µM
[25] = RPMI 5 mM glucose + 10% dialyzed FBS, 0.00702 µM
[26] = RPMI 5 mM glucose + 10% dialyzed FBS, 0.0211 µM
[27] = RPMI 5 mM glucose + 10% dialyzed FBS, 0.0632 µM
[28] = RPMI 5 mM glucose + 10% dialyzed FBS, 0.19 µM
[29] = RPMI 5 mM glucose + 10% dialyzed FBS, 0.569 µM
[30] = RPMI 5 mM glucose + 10% dialyzed FBS, 1.71 µM
[31] = RPMI 5 mM glucose + 10% dialyzed FBS, 5.12 µM
[32] = RPMI 5 mM glucose + 10% dialyzed FBS, 15.4 µM
[33] = RPMI 5 mM glucose + 10% dialyzed FBS, 46.1 µM

Row | Structure (SMILES) | cell viability [1] [%] | cell viability [2] [%] | cell viability [3] [%] | cell viability [4] [%] | cell viability [5] [%] | cell viability [6] [%] | cell viability [7] [%] | cell viability [8] [%] | cell viability [9] [%] | cell viability [10] [%] | cell viability [11] [%] | cell viability [12] [%] | cell viability [13] [%] | cell viability [14] [%] | cell viability [15] [%] | cell viability [16] [%] | cell viability [17] [%] | cell viability [18] [%] | cell viability [19] [%] | cell viability [20] [%] | cell viability [21] [%] | cell viability [22] [%] | cell viability [23] [%] | cell viability [24] [%] | cell viability [25] [%] | cell viability [26] [%] | cell viability [27] [%] | cell viability [28] [%] | cell viability [29] [%] | cell viability [30] [%] | cell viability [31] [%] | cell viability [32] [%] | cell viability [33] [%]
1 | C=C(C)[C@H]1Cc2c(ccc3c2O[C@@H]2COc4cc(OC)c(OC)cc4[C@@H]2C3=O)O1 | 96 | 85.9 | 103 | 85.1 | 75.5 | 92.8 | 104 | 94.5 | 57.1 | 22.6 | 14.2 | 79.7 | 94.7 | 89.6 | 108 | 60.1 | 89 | 87.8 | 80.2 | 40.3 | 15.8 | 10 | 101 | 106 | 125 | 106 | 77 | 109 | 91.4 | 86.7 | 40.4 | 23.1 | 13.3
2 | COc1cc2c(cc1OC)CC(=O)N(CCCN(C)C[C@H]1Cc3cc(OC)c(OC)cc31)CC2.Cl | 102 | 96.8 | 116 | 115 | 112 | 125 | 114 | 111 | 112 | 114 | 105 | 99.2 | 105 | 96.3 | 114 | 113 | 107 | 107 | 95.7 | 111 | 92.9 | 93.4 | 93.6 | 112 | 108 | 117 | 104 | 88.3 | 105 | 104 | 103 | 113 | 92
3 | CSCC[C@@H](NC(=O)[C@@H](Cc1ccccc1)NC(=O)CNC(=O)CNC(=O)[C@@H](N)Cc1ccc(O)cc1)C(=O)O | 73.5 | 44.7 | 93 | 22 | 106 | 103 | 94.9 | 102 | 98.9 | 91.6 | 99.6 | 72.6 | 25.7 | 80.9 | 15.5 | 103 | 104 | 90.5 | 107 | 96.6 | 99.9 | 120 | 81.9 | 38.3 | 102 | 20.9 | 95.6 | 103 | 92.3 | 99.7 | 106 | 103 | 99.8
4 | CNc1nccc(-c2cccnc2Oc2cc(C(=O)Nc3cccc(C(F)(F)F)c3)ccc2C)n1 | 97.2 | 101 | 115 | 113 | 118 | 104 | 122 | 113 | 109 | 90.2 | 97.8 | 106 | 92.6 | 99.8 | 103 | 111 | 103 | 113 | 97.4 | 95.9 | 72.4 | 92.9 | 95.8 | 97.4 | 103 | 107 | 119 | 125 | 103 | 107 | 97.9 | 82.9 | 97
5 | Cc1cccc(Nc2nc(-c3ccncc3)cs2)c1 | 86.5 | 115 | 88.8 | 98.3 | 99.5 | 126 | 104 | 117 | 118 | 112 | 59.5 |  |  |  |  |  |  |  |  |  |  |  | 92.4 | 141 | 84 | 116 | 109 | 125 | 134 | 130 | 123 | 96.3 | 46.2
6 | CC/1=C(/N2[C@H](SC1)[C@H](NC(=O)[C@H](N)\C3=C\C\C=C/C3)C2=O)C(O)=O | 79.3 | 87.2 | 94 | 86.5 | 82.9 | 97.1 | 95.8 | 91.2 | 93.5 | 111 | 102 | 95.8 | 106 | 120 | 98.1 | 115 | 120 | 111 | 118 | 107 | 113 | 120 | 88.8 | 112 | 98 | 87.4 | 109 | 117 | 114 | 107 | 124 | 114 | 113
7 | Cc1[nH]c2ccccc2c1CCNCc1ccc(/C=C/C(=O)NO)cc1 | 99.1 | 114 | 112 | 114 | 116 | 75.8 | 12.3 | 7.29 | 8.44 | 8.29 | 8.77 | 85.6 | 88.8 | 101 | 94.3 | 92.5 | 74.1 | 12.6 | 5.77 | 7.04 | 7.05 | 7.05 | 89.9 | 106 | 108 | 115 | 112 | 81.6 | 19.5 | 7.59 | 8.77 | 8.45 | 9.84
8 | N=C(NCCCCCCNC(=N)NC(=N)Nc1ccc(Cl)cc1)NC(=N)Nc1ccc(Cl)cc1 | 95.6 | 104 | 95.6 | 95.2 | 101 | 104 | 104 | 93.9 | 92.2 | 86.8 | 52 | 98.4 | 102 | 104 | 97.5 | 93.4 | 107 | 96.4 | 104 | 107 | 97.6 | 68 | 83.6 | 92.9 | 93.4 | 87.9 | 89.3 | 96.7 | 90.9 | 85.8 | 103 | 80.9 | 42.1
